Experimental data as given in PubChem BioAssay (NCI).
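96-well plates; 48 h exposure; 5 concentrations. Endpoints by linear interpolation between flanking doses. Not reached: highest tested concentration assigned. Here, GI50 denotes the concentration required for 50% inhibition of growth. TGI: total growth inhibition.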

Tests used:
Assay in all cases: inhibition of tumour cell growth, NCI panel, 48 h
A549 NSCLC = system: A549 NSCLC
HOP-62 NSCLC = system: HOP-62 NSCLC
SF-268 CNS = system: SF-268 CNS
KM12 colon = system: KM12 colon
UACC-62 melanoma = system: UACC-62 melanoma
OVCAR-8 ovarian = system: OVCAR-8 ovarian
PC-3 prostate = system: PC-3 prostate
OVCAR-4 ovarian = system: OVCAR-4 ovarian
COLO 205 colon = system: COLO 205 colon
HCT-116 colon = system: HCT-116 colon
UO-31 renal = system: UO-31 renal
A498 renal = system: A498 renal
IGROV1 ovarian = system: IGROV1 ovarian
UACC-257 melanoma = system: UACC-257 melanoma
TK-10 renal = system: TK-10 renal
MDA-MB-231 breast = system: MDA-MB-231 breast
HL-60(TB) leukemia = system: HL-60(TB) leukemia
M14 melanoma = system: M14 melanoma
EKVX NSCLC = system: EKVX NSCLC
HOP-92 NSCLC = system: HOP-92 NSCLC
NCI-H460 lung = system: NCI-H460 lung
NCI/ADR-RES ovarian = system: NCI/ADR-RES ovarian
HT29 colon = system: HT29 colon
T-47D breast = system: T-47D breast
LOX IMVI melanoma = system: LOX IMVI melanoma
SN12C renal = system: SN12C renal
U251 CNS = system: U251 CNS
SF-539 CNS = system: SF-539 CNS
MOLT-4 leukemia = system: MOLT-4 leukemia

SMILES: CC(=O)Nc1cc(F)cc(-c2ccc3[nH]cc(-c4ccccc4)c3n2)c1
- GI50 (A549 NSCLC): 3.6 µM
- TGI (A549 NSCLC): 16.7 µM
- GI50 (HOP-62 NSCLC): 4.2 µM
- TGI (HOP-62 NSCLC): 17.4 µM
- GI50 (SF-268 CNS): 5.12 µM
- TGI (SF-268 CNS): 22 µM
- GI50 (KM12 colon): 1.87 µM
- TGI (KM12 colon): 3.56 µM
- GI50 (UACC-62 melanoma): 3.34 µM
- TGI (UACC-62 melanoma): 11.9 µM
- GI50 (OVCAR-8 ovarian): 6.16 µM
- TGI (OVCAR-8 ovarian): 44.3 µM
- GI50 (PC-3 prostate): 3.33 µM
- TGI (PC-3 prostate): 16 µM
- GI50 (OVCAR-4 ovarian): 5.44 µM
- TGI (OVCAR-4 ovarian): 18.6 µM
- GI50 (COLO 205 colon): 2.17 µM
- TGI (COLO 205 colon): 4.69 µM
- GI50 (HCT-116 colon): 3.33 µM
- TGI (HCT-116 colon): 12 µM
- GI50 (UO-31 renal): 3.88 µM
- TGI (UO-31 renal): 14.8 µM
- GI50 (A498 renal): 3.75 µM
- TGI (A498 renal): 12.7 µM
- GI50 (IGROV1 ovarian): 5.04 µM
- TGI (IGROV1 ovarian): 21.1 µM
- GI50 (UACC-257 melanoma): 2.32 µM
- TGI (UACC-257 melanoma): 5.96 µM
- GI50 (TK-10 renal): 6 µM
- TGI (TK-10 renal): 18.3 µM
- GI50 (MDA-MB-231 breast): 3.46 µM
- TGI (MDA-MB-231 breast): 12.7 µM
- GI50 (HL-60(TB) leukemia): 2.72 µM
- TGI (HL-60(TB) leukemia): 10.7 µM
- GI50 (M14 melanoma): 2.65 µM
- TGI (M14 melanoma): 7.85 µM
- GI50 (EKVX NSCLC): 4.71 µM
- TGI (EKVX NSCLC): 21.5 µM
- GI50 (HOP-92 NSCLC): 2.97 µM
- TGI (HOP-92 NSCLC): 9.63 µM
- GI50 (NCI-H460 lung): 3.37 µM
- TGI (NCI-H460 lung): 14.6 µM
- GI50 (NCI/ADR-RES ovarian): 3.99 µM
- TGI (NCI/ADR-RES ovarian): 23 µM
- GI50 (HT29 colon): 2.21 µM
- TGI (HT29 colon): 5.15 µM
- GI50 (T-47D breast): 4.77 µM
- TGI (T-47D breast): 29.1 µM
- GI50 (LOX IMVI melanoma): 1.75 µM
- TGI (LOX IMVI melanoma): 3.39 µM
- GI50 (SN12C renal): 6.7 µM
- TGI (SN12C renal): 21.9 µM
- GI50 (U251 CNS): 3.73 µM
- TGI (U251 CNS): 16.1 µM
- GI50 (SF-539 CNS): 2.97 µM
- TGI (SF-539 CNS): 10.7 µM
- GI50 (MOLT-4 leukemia): 2.26 µM
- TGI (MOLT-4 leukemia): 10.4 µM
